Source: patent publication US20060030623A1, “Agent for the treatment or prevention of diabetes, obesity or arteriosclerosis” (priority 2004, published 2006)

Key:
[1] = Antidiabetic effect: plasma parameters in KKAy mice after 14 days of Compound (1) in diet; type: in vivo, mouse (male KKAy, genetically diabetic, insulin-resistant); settings: blood on day 15; for Free fatty acid / Insulin / Neutral fat: plasma
Text: Male KKAy mice (Clea Japan, Inc.) aged 7 weeks which are genetically diabetic (insulin-resistant) were used in the test. Blood was previously collected from the orbital venous plexus of animals acclimated to feeding with normal powdered diet (CRF-1, Oriental Yeast, Co., Ltd.), and then the animals were grouped into 5 groups containing 6 animals each so that there might be no intergroup difference with respect to plasma parameters (neutral fat value, free fatty acid value, insulin value, blood sugar level). Compound (1) was added to the powdered diet so that the concentration in the diet might be 1, 3, 10, and 30 mg/kg/day. The animals were allowed to take the diet ad libitum for 14 days, and blood was collected again from the orbital venous plexus in the morning on day 15 for the measurement of the above-mentioned plasma parameters.

[2] = Anti-obesity effect: body weight and gain in rabbits on high fat diet; type: in vivo, Japanese white rabbits; settings: high fat diet restricted to 100 g/day, after 12 weeks
Text: Japanese white rabbits (Kitayama Labes., Co Ltd.) aged 9 weeks were used in the test. Blood was collected from the auricular artery of animals acclimated to feeding with high fat diet (RC-4 containing 0.3% cholesterol and 3% peanut oil, supplied by Oriental Yeast, Co., Ltd.), and then the animals were grouped into 4 groups containing 12 animals each so that there might be no intergroup difference with respect to body weight and plasma parameters (neutral fat value, total cholesterol value, HDL cholesterol value). Compound (1) was added to the high fat diet so that the intake of Compound (1) might be 3, 10, and 30 mg/kg/100 g diet/day. The animals were given the diet restricted to 100 g diet/day for 12 weeks, and body weight and its gain were determined after the 12 weeks.

[3] = Visceral fat-decreasing effect: fat weight by X ray CT in rats on high fat diet; type: in vivo; settings: SD rats, 35% (w/w) high fat diet with 0.029% (w/w) Compound (1), 3 months
Text: SD rats (Charles River Japan, Inc.) aged 8 weeks were used in the test. Animals acclimated to feeding with 35% (w/w) high fat diet for 1 week were grouped into 2 groups, i.e. a control group and a group treated with Compound (1), for the test. Animals in the control group received the 35% (w/w) high fat diet, and those in the Compound (1) group received the diet prepared by adding Compound (1) to 0.029% (w/w) of the 35% (w/w) high fat diet, for 3 months. Tap water was available ad libitum to the animals in the test.
Fat weight was determined 3 months later with an X ray CT scanner for laboratory animals (Aloka).

[4] = Anti-arteriosclerosis effect: lipid-stained area of aorta in rabbits on high fat diet; type: in vivo, Japanese white rabbits; settings: rabbit aorta, lipid stain, high fat diet 100 g/day, 12 weeks
Text: Japanese white rabbits (Kitayama Labes., Co Ltd.) aged 9 weeks were used in the test. Blood was collected from the auricular artery of animals acclimated to feeding with high fat diet (RC-4 containing 0.3% cholesterol and 3% peanut oil, Oriental Yeast, Co., Ltd.), and then the animals were grouped into 4 groups containing 12 animals each so that there might be no intergroup difference with respect to body weight and parameters in plasma (neutral fat value, total cholesterol value, HDL cholesterol value). Compound (1) was added to the high fat diet so that the intake of Compound (1) might be 3, 10, and 30 mg/kg/100 g diet/day. The animals were allowed to take the diet restricted to 100 g diet/day for 12 weeks, lipid of the aorta was stained, and the stained region was defined as the arteriosclerotic region. The percentage of area of the arteriosclerotic region was calculated according to the equation below.

Solubility in water = type: physicochemical; settings: general statement, no test described

CCOC(=O)C(COC(=O)Cc1ccc(NC(=O)c2ccccc2-c2ccc(C(F)(F)F)cc2)c(C(=O)N(C)C)c1)(C(=O)OCC)c1ccccc1 [Compound (1), 2-(2-{3-dimethylcarbamoyl-4-[(4′-trifluoromethyl-biphenyl-2-carbonyl)amino]phenyl}acetoxymethyl)-2-phenylmalonic acid diethyl ester]
Blood sugar ([1]; 1 mg/kg/day in diet): 413 ± 34.9 mg/dL
Blood sugar ([1]; 3 mg/kg/day in diet): 516 ± 14.9 mg/dL
Blood sugar ([1]; 10 mg/kg/day in diet): 405 ± 36.8 mg/dL
Blood sugar ([1]; 30 mg/kg/day in diet): 331 ± 39.6 mg/dL
Free fatty acid ([1]; 1 mg/kg/day in diet): 353 ± 15.9 µEq/l
Insulin ([1]; 1 mg/kg/day in diet): 117 ± 14.0 ng/mL
Neutral fat ([1]; 1 mg/kg/day in diet): 676 ± 57.2 mg/dL
Free fatty acid ([1]; 3 mg/kg/day in diet): 293 ± 11.7 µEq/l
Insulin ([1]; 3 mg/kg/day in diet): 103 ± 10.5 ng/mL
Neutral fat ([1]; 3 mg/kg/day in diet): 716 ± 79.9 mg/dL
Free fatty acid ([1]; 10 mg/kg/day in diet): 235 ± 24.9 µEq/l
Insulin ([1]; 10 mg/kg/day in diet): 102 ± 11.3 ng/mL
Neutral fat ([1]; 10 mg/kg/day in diet): 545 ± 53.1 mg/dL
Free fatty acid ([1]; 30 mg/kg/day in diet): 171 ± 17.4 µEq/l
Insulin ([1]; 30 mg/kg/day in diet): 67 ± 10.4 ng/mL
Neutral fat ([1]; 30 mg/kg/day in diet): 298 ± 21.0 mg/dL
Body weight ([2]; 3 mg/kg/day): 3122.1 g
Body weight gain ([2]; 3 mg/kg/day): 1176.0 g
Body weight ([2]; 10 mg/kg/day): 2997.1 g
Body weight gain ([2]; 10 mg/kg/day): 1065.9 g
Body weight ([2]; 30 mg/kg/day): 2969.0 g
Body weight gain ([2]; 30 mg/kg/day): 1025.4 g
Muscle weight [3]: 204.4 g
Subcutaneous fat weight [3]: 14.9 g
Visceral fat weight [3]: 28.8 g
Percentage of area of arteriosclerotic region ([4]; 3 mg/kg/day): 28.4%
Percentage of area of arteriosclerotic region ([4]; 10 mg/kg/day): 7.7%
Percentage of area of arteriosclerotic region ([4]; 30 mg/kg/day): 0.15%
Solubility in water (Solubility in water): slightly soluble or insoluble in water
